Data from patent US12031986B2, “Polypeptide for targeting recognition of immune cells and application thereof” (KEYANGLE LIFE TECHNOLOGY CO., LTD., priority 2019, dated 2024).
Entries after “also recorded” stand apart in the source; their conditions may differ. No end group written: not given here.

What was measured:
[1] = tested on: cultured peritoneal macrophages and other cells released from enzyme-digested mesenterium; assay: Selective labeling of cultured peritoneal macrophages among other cells released from enzyme-digested mesenterium; format: cell-based, mouse; settings: peritoneal cells and mesenteries trypsin-digested, cultured 3 days
Procedure: Take 5 to 8-week-old Kunming mice, inject intraperitoneally with 5 mL of serum-free DMEM incomplete medium. After 1 hour, sacrifice the mice by cervical vertebra dislocation. Make an incision on the skin of abdominal cavity, pierce the abdominal wall muscle using the syringe, and extract the fluid in the abdominal cavity of the mice. Wash twice with 1×PBS, collect peritoneal cells by centrifugation. Also take the mesenteries of the Kunming mice and purge twice with 1×PBS in centrifuge tubes. Incubate the obtained peritoneal cells and mesenteries in 0.25% trypsin solution and digest for 30 minutes. Enrich the cells by centrifugation, and then culture for 3 days in a 96-well plate using F12/DMEM culture solution containing 10% FBS and 1% streptomycin-penicillin. Referring to Example 5, label with the EK24 fluorescent probe and Nucblue. Then the cells were observed under a fluorescence microscope (20×, light source 10%, exposure 200 ms, gain 5).

[2] = tested on: primary macrophages from rat peritoneal cavity; assay: In vitro fluorescent labeling of primary macrophages from rat peritoneal cavity; format: cell-based; settings: SD rats, cells cultured more than 2 days
Procedure: With the same process as in Example 9, extract cells from the abdominal cavity of 5 to 8 weeks old SD rats using 20 mL serum-free DMEM incomplete medium and culture the cells in a 96-well plate. After culturing for more than 2 days until the cells attached to the bottom firmly, a well was selected and added with EK24 fluorescent probe for incubation. Then the cells were observed under a fluorescence microscope (20×, light source 10%, exposure 200 ms, gain 5).

[3] = tested on: mouse macrophage cell line RAW264.7; assay: In vitro fluorescence labeled staining of a mouse macrophage cell line; format: cell-based; settings: 10 μM, incubated 1 h
Procedure: Culture the mouse macrophage cell line RAW264.7 in a 96-well plate, wash the wells once with 1×PBS buffer or a serum-free DMEM incomplete medium, remove the washing liquid, add EK24 solution of 10 μM which had been diluted with 100 μL of serum-free DMEM incomplete medium, and incubate in a cell culture incubator for 1 h. After that, wash the wells twice with 1× PBS buffer or the serum-free DMEM incomplete medium. Then, add DMEM complete medium containing 10% FBS and 1% streptomycin-penicillin, and double-stain the cells using nuclear dye Nucblue and observe under EVOS® FL Auto fluorescence microscope (Life Technologies, light source 10%, exposure 200 ms, gain 5).

[4] = tested on: monocyte precursors from New Zealand White Rabbit bone marrow mesenchyme; assay: In vitro fluorescent labeling of primary monocyte precursors of New Zealand White Rabbit; format: cell-based; settings: cultured
Source text: With a similar process to Example 11, bone marrow monocyte precursors of New Zealand White Rabbit were taken and cultured, then labeled by using EK24 fluorescent probe and Nucblue. Then the cells were observed under a fluorescence microscope (20×, light source 10%, exposure 200 ms, gain 5).

[5] = tested on: mouse alveolar macrophages; assay: In vivo fluorescent labeling of mouse pulmonary macrophages after spraying through the trachea; settings: sprayed into the lungs through the trachea; whole lungs observed
Source text: In yet another aspect of the present disclosure, it provides a method for convenient, oral and non-invasive in situ imaging or targeted drug administration for pulmonary immune cells. After spraying into the trachea of a mouse, the polypeptide or probe of the present disclosure can be diffused along the trachea in the living body, automatically target and aggregate in alveolar macrophages, and thus allow real-time and in situ imaging or targeted drug delivery to pulmonary and alveolar macrophages. The imaging may be maintained for more than 24 hours. The experiments of the present disclosure confirm that the probe described above can diffuse to lungs through mouth inhalation, and recognize macrophages therein, which is consistent with CD11c antibody recognizing alveolar macrophages.
Spray 100 μL of 50 μM EK24-drug into the lungs of 4- to 8-week-old mice through the trachea thereof, and after 18 hours, dilute 5 μL of Alexa Fluor®488 anti-mouse CD11c antibody (Biolegend) to 100 μL and then spray into the lung for 1.5 h. Dissect the mice, and take the whole lungs for observing under a fluorescence microscope (20×, light source 50%, exposure 200 ms, gain 5).

[6] = tested on: mouse peritoneal macrophages; assay: In vivo fluorescent labeling of macrophages in a mouse abdominal cavity; settings: probe injected into abdominal cavity, cells extracted after 4 hours, fluorescence microscope
Procedure: Dilute 300 μL of 50 μM AK9 fluorescent probe solution with serum-free DMEM incomplete medium to obtain 1 mL of solution, then inject into the abdominal cavities of 5-8 week old Kunming mice. After 4 hours, inject 5 mL of 1×PBS, and massage. After 10 minutes, sacrifice the mice by cervical vertebra dislocation. Cut the abdominal cavity skin of the mice, pierce the abdominal wall muscle by syringe, and extract the fluid in the abdominal cavity of the mice. Centrifuge the extracted peritoneal fluid at 1000 rpm for 5 min, wash twice with 1×PBS. Double-stain an appropriate number of cells with Alexa Fluor 488 anti-mouse F4/80 antibody (Biolegend). Add the stained cells to a 96-well plate and stain with a nuclear dye Nucblue (Invitrogen). Observe under EVOS FL Auto fluorescence microscope (Life Technologies, 20×, light source 50%, exposure 200 ms, gain 10) after the suspended cells were settled down at the bottom of the plate.
Table 1 lists probes, which contain the polypeptide fragments from the C-terminal fragments of Triokinases/FMN cyclases of different species and were prepared by a similar process as described in Examples 1 and 2, and in vivo imaging results of mouse peritoneal macrophages using these probes.

[7] = tested on: cultured macrophages isolated from mouse peritoneal cavity; assay: In vitro fluorescent labeling of cultured macrophages isolated from mouse peritoneal cavity; format: cell-based; settings: 10 μM EK24 premixed with F4/80 antibody, 1 h at 37 °C
Procedure: Inject 5 mL of serum-free DMEM incomplete medium into the abdominal cavity of 5 to 8 weeks old mice, massage the abdominal cavity gently for 10 min, and sacrifice the mice by cervical vertebra dislocation. Extract the fluid from the abdominal cavity gently with a syringe, inject into a 5 mL centrifuge tube and centrifuge at 1000 rpm for 5 min, remove the supernatant, and resuspend the collected ex-vivo cells in DMEM/F12 medium containing 10% FBS, then add into a 96-well plate for culture. Generally, if cells are taken intraperitoneally for in vitro culture, macrophages would tend to adhere to the bottom of the well, and other cells would be washed off. The cells were cultured for more than 2 days until the cells attached to the bottom firmly. At this time, the cells remaining in the wells were basically macrophages. Select two wells, one as a control and the other as an experimental well. The cells of the control were nuclear stained with Nucblue. The experimental well was added with a premix of AlexaFluor®488 anti-mouse F4/80 antibody (Biolegend) and EK24 fluorescent probe, and then incubated for 1 h at 37° ° C. The premix contained 10 μM of EK24 solution and 2 μL of Alexa Fluor®488 anti-mouse F4/80 antibody diluted with 100 μL of serum-free DMEM incomplete medium. […] The cells were observed under a fluorescence microscope (20× objective lens, light source 10%, exposure 200 ms, gain 5).

[8] = tested on: macrophages on mouse abdominal wall; assay: In vivo fluorescent labeling of macrophages on mouse abdominal wall; settings: injected with FITC anti-mouse CD68 antibody; abdominal wall muscle removed
Procedure: Referring to Example 3, using the same drug injection process, inject EK24, and FITC anti-mouse CD68 antibody (Biolegend) which was diluted with PBS from 2 μL to 500 μL. Remove mouse abdominal wall muscle for Nucblue double-staining and then observing under a fluorescence microscope (20×, light source 50%, exposure 200 ms, gain 5).

## EQPDPGAVAAAAILRAILEVLQS-Y (EQPDPGAVAAAAILRAILEVLQSY; also: reporter type not given here; listed as Homo sapiens) [EK24, Y = reporter or cysteine/lysine + reporter]
[1]
  staining of macrophages in mixed culture: only stains macrophages
  staining of non-macrophages in mixed culture: not stain non-macrophages
[2]
  labeling of in vitro cultured primary macrophages from rat peritoneal cavity: can effectively label
[3]
  fluorescent labeling of RAW264.7: can be labeled
[4]
  labeling of New Zealand White Rabbit bone marrow monocyte precursors: capable of labeling
[5]
  recognition of mouse alveolar / pulmonary macrophages: recognize the same cells in mouse alveoli
[6]
  in vivo labeling / recognition of mouse peritoneal macrophages by the fluorescent probe: can effectively recognize macrophages in vivo; also recorded: can be labeled
[7]
  co-localization of probe label and F4/80 antibody label: co-localized on the same cells
[8]
  labeling of macrophages on mouse abdominal wall: can be labeled
  labeling of other cells of mouse abdominal wall: cannot be labeled
